# Data published in BindingDB's records for doi:10.1021/jm00114a015 (National Institute of Diabetes and Digestive and Kidney …, 1991).
# Legend:
# [1] = Compound was tested for the inhibitory activity against Sigma opioid receptor by using [3H](+)-3-PPP as radioligand in guinea pig brain
# [2] = as above; remark: listed apart in the source
SMILES,Ki [1],Ki [2]
CCN(CCc1ccc(Cl)c(Cl)c1)[C@@H]1CCCC[C@@H]1N1CCCC1,3.5 nM,
CCN(CCc1ccc(Cl)c(Cl)c1)[C@H]1CCCC[C@H]1N1CCCC1,,3.1 nM
CN(Cc1ccc(Cl)c(Cl)c1)[C@H]1CCCC[C@H]1N1CCCC1,1.2 nM,
CCCN(CCc1ccc(Cl)c(Cl)c1)[C@H]1CCCC[C@H]1N1CCCC1,,140 nM
CCCN(CCc1ccc(Cl)c(Cl)c1)[C@@H]1CCCC[C@@H]1N1CCCC1,,56 nM
